In publication PMC6199744, “Development of Chemical Proteomics for the Folateome and Analysis of the Kinetoplastid Folateome” (ACS Infectious Diseases, 2018):
Where two headings read alike, the source gives them in different places.

Molecular target: T. brucei lysate proteins (Trypanosoma brucei brucei, UniProt P04789)
Format: binding
[1] = protein TB427TMP.02.3210 TRIOS[…], vehicle control = 1
[2] = protein TB427TMP.02.3210 TRIOS[…]

Chain of T. brucei lysate proteins (P04789 whole entry): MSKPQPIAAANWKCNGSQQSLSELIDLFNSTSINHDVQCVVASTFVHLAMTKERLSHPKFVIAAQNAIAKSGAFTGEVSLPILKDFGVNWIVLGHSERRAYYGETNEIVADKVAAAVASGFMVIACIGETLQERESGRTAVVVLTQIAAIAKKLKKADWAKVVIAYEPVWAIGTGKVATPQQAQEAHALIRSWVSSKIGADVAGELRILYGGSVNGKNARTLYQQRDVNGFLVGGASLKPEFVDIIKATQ

Nc1nc2c(c(=O)[nH]1)N(C=O)C(CNc1ccc(C(=O)N[C@@H](CCC(=O)O)C(=O)O)cc1)CN2 (stereo partly shown) [LEU, leucovorin]
fold change vs vehicle control [1]: 2.16

Nc1nc2[nH]cc(CCc3ccc(C(=O)N[C@@H](CCC(=O)O)C(=O)O)cc3)c2c(=O)[nH]1 [PTX, pemetrexed]
fold change vs vehicle control: 0.63

CCCCCCOc1ccc(Cc2cnc(N)nc2N)cc1 [compound 1]
fold change - vehicle control [2]: 0.88

CCCCCCOc1cccc(Cc2cnc(N)nc2N)c1 [compound 2]
fold change - vehicle control [2]: 0.98

Nc1nc2cccc(-c3ccccc3)c2n1Cc1ccc(Cl)c(Cl)c1 [compound 3]
fold change - vehicle control [2]: 0.75

NCCOCCOCC(=O)Nc1nc2ncc(CNc3ccc(C(=O)NC(CCC(=O)O)C(=O)O)cc3)nc2c(=O)[nH]1 (stereo not shown) [compound 6]
fold change vs vehicle control [1]: 1.54

NCCCNc1ccc(C(=O)NC(CCC(=O)O)C(=O)O)cc1 (stereo not shown) [compound 7]
fold change vs vehicle control [1]: 1.05
